Measurements from paper PMC4366150, “Inhibiting EGFR Dimerization Using Triazolyl-Bridged Dimerization Arm Mimics” (PLoS ONE, 2015).
Positions of bridges follow the written chain, without caps; N, C: chain ends. Non-standard residues stand in square brackets, D forms with d. Residues, ends and D or L forms follow the SMILES beside them. Triazole bridges read from a SMILES are 1,4-linked. *: point of attachment. 5FAM = O=C1OC2(c3ccc(O)cc3Oc3cc(O)ccc32)c2ccc(C(=O)*)cc21; Aha = [N-]=[N+]=NCC[C@H](N)C(=O)O; Nle = CCCC[C@H](N)C(=O)O; Pra = C#CC[C@H](N)C(=O)O; βAla = NCCC(=O)O

Columns and labels:
Type in all cases: cell-based
EGFR p-Tyr1068 = assay: EGFR phosphorylation (Tyr1068) in MDA-MB-231 cells, western blot; details: 30 min pretreatment, 50 ng/mL EGF 5 min
Experimental: (§1) The EDA peptides were first tested to see if they could downregulate EGFR activation. Receptor activation was monitored as a function of EGFR autophosphorylation on Tyr1068 in intact MDA-MB-231 cells (Fig. 5a and b and S3 Fig.). The receptor was stimulated with EGF for 5 min following a 30 min peptide pretreatment.
Fig 5 EDA2 down-regulates activated EGFR and reduces cell viability. (a) Cells were stimulated with 50 ng/mL EGF for 5 min in the presence or absence of EDA peptides, followed by western blotting. An apparent decrease in phosphorylated EGFR was observed when treated with EDA2. Vertical lines indicate non-adjacent samples from the same western blot. […] Data is plotted as the average of at least three experiments, where error bars represent SEM. * p < 0.05, ** p < 0.01 relative to the EGF-stimulated control. […] (c) A panel of cell lines was dosed daily with EDA2 or gefitinib for 5 days, and viability was quantified using the Cell Titer Blue assay. […]
Proteins were separated by 8% SDS-PAGE then transferred onto PVDF membrane. […] Bands were visualized by chemiluminescence and quantified using Licor Image Studio Lite. […] Significance values were calculated using two-way ANOVA with Bonferonni multiple-comparison test. […] Significance values were calculated using one-way ANOVA with Bonferonni multiple-comparison test. […]

PC-3 cells = assay: Cell viability, Cell Titer Blue, PC-3; details: 6.25 μM, dosed daily for 5 days, average of quadruplicates
Experimental: (§2) Fig 5 EDA2 down-regulates activated EGFR and reduces cell viability. (a) Cells were stimulated with 50 ng/mL EGF for 5 min in the presence or absence of EDA peptides, followed by western blotting. An apparent decrease in phosphorylated EGFR was observed when treated with EDA2. Vertical lines indicate non-adjacent samples from the same western blot. […] Data is plotted as the average of at least three experiments, where error bars represent SEM. * p < 0.05, ** p < 0.01 relative to the EGF-stimulated control. All remaining means are not significant (p > 0.05) relative to the EGF-stimulated control. (c) A panel of cell lines was dosed daily with EDA2 or gefitinib for 5 days, and viability was quantified using the Cell Titer Blue assay. […]
(§3) Since EDA2 appeared to downregulate EGFR phosphorylation, we sought to determine whether this activity could also lead to a decrease in cell viability (Fig. 5c). Three diverse, EGFR-expressing cell lines (MDA-MB-231, PC-3, and BxPC-3) were dosed daily with EDA2 over a 0–50 μM concentration range over a five-day time course, after which cell viability was quantified using the Cell Titer Blue assay. […]
(§4) MDA-MB-231, PC-3, or Bx-PC3 cells were seeded at 7,500 cells/well in a 96 well plate and allowed to adhere in RPMI-1640 containing 1% FBS. […] Fluorescence was quantified using 530 nm excitation and 590 nm emission filters. […]

BxPC-3 cells = assay: Cell viability, Cell Titer Blue, BxPC-3; details: 6.25 μM, dosed daily for 5 days, average of quadruplicates
Experimental: as §2, §3, §4

MDA-MB-231 cells = assay: Cell viability, Cell Titer Blue, MDA-MB-231; details: 6.25 μM, dosed daily for 5 days, average of quadruplicates
Experimental: as §2, §3, §4

total EGFR = target: T1, total EGFR (Homo sapiens, UniProt P00533); assay: Total EGFR protein levels in MDA-MB-231 cells, western blot; details: peptide 30 min, 50 ng/mL EGF 5 min, western blot normalized to tubulin, average of two experiments
T1 construct: EGFR autophosphorylation on Tyr1068 in intact MDA-MB-231 cells; endogenous in cells; host or cells: MDA-MB-231 (ATCC)
Experimental: as §1
While EDA2 downregulates receptor phosphorylation, we also wanted to investigate whether EGFR dimerization itself was inhibited. As a strategy to measure the number of detectable EGFR dimers in intact cells, a quantitative Proximity Ligation Assay (PLA) was performed (Fig. 6). Cells were stimulated with EGF in the presence or absence of EDA2 or its scramble control (EDA2-Scr). […] Fluorescence microscopy was used to visualize the DAPI and PLA signals.
Proteins were separated by 8% SDS-PAGE then transferred onto PVDF membrane. […] Bands were visualized by chemiluminescence and quantified using Licor Image Studio Lite. […] Significance values were calculated using two-way ANOVA with Bonferonni multiple-comparison test. […] Significance values were calculated using one-way ANOVA with Bonferonni multiple-comparison test.
Supplementary file pone.0118796.s004.tif: S4 Fig The effect of EDA2 and its controls on total EGFR protein levels in the cell. […] Cells were immediately lysed and total EGFR levels were analyzed by western blotting. […]

Structure (SMILES) | reduction of EGFR phosphorylation (Tyr1068) compared to untreated cells (EGFR p-Tyr1068; 5 μM peptide, normalized to tubulin, average of at least three experiments) | reduction of cell viability (PC-3 cells) | reduction of cell viability (BxPC-3 cells) | reduction of cell viability (MDA-MB-231 cells) | effect on EGFR expression (total EGFR) (in words) (total EGFR) | effect on EGFR phosphorylation (Tyr1068) (in words) (EGFR p-Tyr1068; 0.05, 0.5 or 5 μM peptide, western blot)
CCCC[C@@H]1NC(=O)[C@H](CCC(N)=O)NC(=O)[C@H](Cc2ccc(O)cc2)NC(=O)[C@H]([C@@H](C)O)NC(=O)[C@H]([C@@H](C)O)NC(=O)[C@@H]2CCCN2C(=O)[C@H](CC(N)=O)NC(=O)[C@H](Cc2ccc(O)cc2)NC(=O)[C@@H](NC(=O)c2ccc3c(c2)C(=O)OC32c3ccc(O)cc3Oc3cc(O)ccc32)Cc2cn(nn2)CC[C@@H](C(N)=O)NC1=O [EDA2] (5FAM-[Pra]YNPTTYQ[Nle][Aha]-NH2; triazole 1-10) | greater than 60% | 72% | 34% | 50% | no effect | 
CCCC[C@H](NC(=O)[C@H](CCC(N)=O)NC(=O)[C@H](Cc1ccc(O)cc1)NC(=O)[C@@H](NC(=O)[C@@H](NC(=O)[C@@H]1CCCN1C(=O)[C@H](CC(N)=O)NC(=O)[C@H](Cc1ccc(O)cc1)NC(=O)[C@H](C)NC(=O)CCNC(=O)c1ccc2c(c1)C(=O)OC21c2ccc(O)cc2Oc2cc(O)ccc21)[C@@H](C)O)[C@@H](C)O)C(=O)N[C@@H](C)C(N)=O [non-modified control, reference compound] ({5FAM-βAla}-AYNPTTYQ[Nle]A-NH2) |  |  |  |  |  | no inhibitory effect
